From US20050064507A1, “Determining kinase specificity” (priority 2003, published 2005)

System: pPKC Ab
Test: pPKC Ab binding to peptides phosphorylated in vitro by PKC-theta
Conditions: for pPKC Ab Signal on peptide after exposure to PKC-theta phosphorylation: 30 minutes at 30° C. then overnight at 4° C.; for pPKC Ab Signal amount dependent on PKC phosphorylation: difference after minus without exposure
Procedure: Synthetic peptides chosen from those shown in Table 4 were subjected to phosphorylation by PKC-theta, Assay conditions were similar to those described herein, except that the phosphorylation reaction was for 30 minutes at 30° C. and then overnight at 4° C. The reaction mixture was applied to HB avidin-coated plates, the plates washed, and then pPKC Ab binding assayed.

Substance: 121 (LRRRSLRRSNSISKSPGP) [compound 121]
- pPKC Ab Signal on peptide without exposure to PKC-theta: 0.02
- pPKC Ab Signal on peptide after exposure to PKC-theta phosphorylation: 1.13
- pPKC Ab Signal amount dependent on PKC phosphorylation: 1.11

Substance: 76 (HVRRRRGTFKRSKLRARD) [compound 76]
- pPKC Ab Signal on peptide without exposure to PKC-theta: 0.07
- pPKC Ab Signal on peptide after exposure to PKC-theta phosphorylation: 1.02
- pPKC Ab Signal amount dependent on PKC phosphorylation: 0.95
